# Experimental data from patent US9845318B2, “Class of near infrared optical probes for biological applications” (The University of Akron, priority 2012, dated 2017).
# Counter-ions that a name gives are not always drawn.
# Tests used:
# [1] = system: Hela cells; assay: Fluorescence imaging of intracellular Zn^2+ in Hela cells; format: cell-based
# Protocol: The Zinhbo-5 sensor was applied on Hela cells, in order to examine whether the probe could be useful in living systems under a confocal laser scanning microscopy. […] After three times washing with PBS buffer, the cells were incubated with ZnCl2 (10 μM) in the medium for another 30 min at 37° C., and the fluorescence in living cells was much brighter (FIG. 20, at D).
# Hela cells were cultured in DEME (Invitrogen) supplemented with 10% FCS (Invitrogen). One day before imaging, cells were seeded in 24-well flat-bottomed plates. The next day, the Hela cells were incubated with 10 μM sensor Zinhbo-5 for 0.5 h at 37° C. under 5% CO2 and then washed with phosphate-buffered saline (PBS) three times before incubating with 10 μM ZnCl2 for another 0.5 h, cells were rinsed with PBS three times again, then the fluorescence imaging of intracelluar Zn2+ was observed under Nikon eclipase TE2000-5 inverted fluorescence microscopy with a 32× objective lens. The Hela cells only incubated with 10 μM Zinhbo-5 for 0.5 hour at 37° C. under 5% CO2 was as a control. For all images, the microscope settings, such as brightness, contrast, and exposure time were held constant to compare the relative intensity of intracellular Zn^2+ fluorescence.
# [2] = system: zebrafish; assay: Imaging of Zn^2+ in developing zebrafish, probe added to fish tank water; format: in vivo
# Text: The most attractive application for zinc probes is sensing Zn^2+ in living organisms. Our ability to discover the fundamental roles of Zn^2+ is dependent on the tools available to detect the Zn^2+ population/concentration in living biological systems. Zebrafish has recently become an important model organism for the study of vertebrate imaging. This is because the embryos of zebrafish are transparent, allowing for clear observation of their organs without the need for dissection. The optical transparancy of zebrafish, therefore, provides a convenient organism for detection of ions by fluorescence microscopy. […] Encouraged by the cell permeability (FIG. 20), Zinhbo-5 was thus examined in developing zebrafish of various stages by adding Zinhbo-5 to fish tank water (treatment lasted for one hour at room temperature). […] However, there were more labeling in other parts of the body in the Zn^2+ treated larvae (FIG. 22 at I). […] Herein the in vivo recognition of the zinc-rich organ in zebrafish larva could be seen with higher image quality by using Zinhbo-5. […] The in vivo results with sensor Zinhbo-5 are somewhat different in light of the previously reported data where zinc was detected using fluorescent sensors in zebrafish. In those studies, fluorescent labeling was concentrated in the heart ventricle of embryos (50 hpf), and scattered throughout the body in larvae (4-5-day old). Whereas Zinhbo-5 labeling is confined mainly to the nose and neuromasts of the lateral line system during this period.
# All images show lateral views of live embryos (anterior to the left and dorsal up). The labeled cells are scattered throughout the embryo at 17 hpf (panels A and B). Panel B is a higher magnification of the mid-trunk region of the embryo shown in panel A. Arrowheads in panel B indicate several labeled cells. Zinhbo-5 labeling becomes more restricted as development proceeds. At 50 hpf, Most labeled cells are concentrated in the nose neuromasts of the lateral line system (panels C-F). Arrowheads and asterisks in panels C and D point to some neuromasts in the posterior lateral line system on this side and the other side of the body trunk, respectively. Panels E and F are higher magnifications of the head region of the labeled embryos. Embryos in panels D and F had been treated with Zn2+ before Zinhbo-5 labeling. (Abbreviations: io2, infraorbital line neuromast 2; ml1, middle line neuromast 1; n, nose; o1 and o2, otic lateral line neuromasts 1 and 2; po1, postorbital neuromast 1; so2, supraorbital line neuromast 2).
# All images show lateral views (anterior to the left and dorsal up) of live zebrafish larvae. Panels A-C are low magnification images showing almost the entire fish; panels D-F show higher magnification of the head region, while panels G-J show higher magnification of the mid-trunk region of the fish. Panels A, D and G are from larvae labeled with Zinhbo-5. Panels B, E and I are from larvae that had been treated with zinc before exposed to Zinhbo-5. Panels C, F and J are from larvae that were simultaneously treated with Zinhbo-5 and TPEN. […] (Abbreviations: io1 and io3, infraorbital line neuromasts 1 and 3; so1, supraorbital line neuromast 1; ye, yolk extension. Other abbreviations are the same as in FIG. 9).
# [3] = Determination of association constant by fluorescence titration with Zn^2+; format: binding
# Protocol: (§1) The NIR emission intensity at ˜710 nm was linearly proportional to the Zn^2+ concentration (linearly dependent coefficient: R^2=0.9982) (FIGS. 18 and 19). […] The association constants K11 and K12 were determined by a nonlinear least-squares analysis of fluorescence intensity versus Zn^2+ ion concentration to be 3.21×10^5 M^−1 and 3.88×10^10 M^−2, respectively.
# An approximate linear fit formula is used to calculate the single association constant Kass1 and Kass2:
# [formula] where n is the number of equivalents of the added metal ions, F0 is the fluorescence intensity of the free sensor, and F1 is the fluorescence intensity in the presence of excess cation, C0 is the initial concentration of Zinhbo-5. Kass1 and Kass2 can be obtained by a linear analysis of (F1−F)(x) versus
# [4] = Fluorescence response of the sensor in solution upon addition of Zn^2+; format: physicochemical
# Text: Free ligand Zinhbo-5 gave only weak green fluorescence at 520 and 560 nm. The green fluorescence signal was increased gradually upon addition of Zn^2+ (FIGS. 12 and 13). In addition, a new emission peak at ˜763 nm occurred, which has a very large Stokes shift (˜285 nm). The new emission band was attributed to the keto form arising from the ESIPT process (FIGS. 14 and 15). […] This is because the substituent at the 5-position of benzoxazole unit exerts less electronic interferences to the anticipated ESIPT process (as shown in structure 5). […] The stronger ESIPT from 9 could be associated with the increased rigidity, when two ligands were assembled together via chelation with Zn^2+ cation.
# as §1
# All the solvents were of analytic grade. The salt used in stock solutions of metal ions were Zn(OAc)2.2H2O, Co(OAc)2.4H2O, Ni(OAc)2.4H2O, Cu(OAc)2.H2O, MgSO4, Cd(OAc)2.6H2O, Mn(OAc)2.4H2O, FeCl2. 4H2O, CaCl2, Na2SO4, Hg(OAc)2, AgNO3, Pb(OAc)2.3H2O, KNO3. Water used was ultra filter deionized and purchased from fisher. HEPES (2-[4-(2-hydroxyethyl)-1-piperazinyl]-ethanesulfonic acid) was from Fisher. NMR spectra were collected on a Varian 300 Gemini spectrometer. Mass spectrometric data were obtained on a HP1100LC/MSD mass spectrometry. UV-Vis spectra were acquired on a Hewlett-Packard 8453 diode-array spectrometer. Fluorescence spectra were obtained on a HORIBA Jobin Yvon NanoLog spectrometer. All pH measurements were made with a model RS232 meter. The fluorescence quantum yield were obtained using quinine sulfate as the standard (Φ=0.53, 0.1 M H2SO4). Cell fluorescence imaging were obtained on a Nikon Eclipse TE2000-5 fluorescence microscope, and analyzed by MetaFluor software (Universal Imaging Corp.).
# [5] = 0.1 M H2SO4; cited from earlier work
structure (smiles),measurement,setting,value
CC(C)(C)c1ccc2oc(-c3cc(O)c(-c4nc5c(CN(Cc6ccccn6)Cc6ccccn6)cccc5o4)cc3O)nc2c1 [Zinhbo-5],"fluorescence inside living cells, probe only","[1]; 10 μM probe, 30 min, 37° C.",very weak fluorescence
same,cell viability in bright-field transmission image,[1]; cells treated with probe and Zn^2+,viable throughout the imaging experiments
same,toxicity to the cell culture,[1]; imaging conditions,primarily nontoxic
same,cell permeability,[1]; living cells,cell-permeable
same,fluorescence in living cells after incubation with ZnCl2,"[1]; then ZnCl2 (10 μM), 30 min, 37° C.",much brighter
same,emission intensity after subsequent addition of TPEN,[1]; zinc chelator TPEN added after Zn^2+,reverted the emission intensity to that of the zinc-free system
same,distribution of labeled zinc-concentrated cells,"[2]; 17 hpf, one hour treatment at room temperature",distributed throughout the embryos
same,distribution of labeled zinc-concentrated cells,[2]; 50 hpf and 72 hpf,mainly located in the nose and neuromasts of the lateral line system
same,labeling pattern in older larvae,[2]; 82 hpf,remained similar
same,"labeling in lateral line structures, exogenous Zn^2+ treated vs untreated larvae","[2]; 82 hpf, Zn^2+ 20 μM",no obvious difference
same,labeling in larvae treated with TPEN,"[2]; 82 hpf, zinc chelator TPEN",almost completely eliminated
same,association constant K12 / overall association constant Kass,"[3]; 2:1 host-guest complex, fluorescence at 710 nm",3.88×10^10 M^−2
same,Kd (sensitivity for Zn^2+),[3]; aqueous solution,2.58 nM^2
same,association constant Kass2,[3]; fluorescence at 710 nm,121000 M⁻¹
same,association constant K11 / Kass1,"[3]; fluorescence intensity versus Zn^2+ concentration, 710 nm",321000 M⁻¹
same,new emission peak upon addition of Zn^2+,"[4]; FIGS. 12 and 13, keto form ESIPT emission",~763 nm
same,fluorescence quantum yield Φfl upon addition of one equivalent Zn2+,"[4]; HEPES buffer solution with 50% EtOH, 1 equivalent Zn2+",0.17
same,fluorescence quantum yield Φfl of free ligand,"[4]; HEPES buffer solution with 50% EtOH, no Zn^2+",0.081
same,fluorescence enhancement upon zinc binding (green emission),[4]; aqueous solution,about 14 fold
same,"NIR emission strength upon zinc binding, comparison","[4]; at ~763 nm, THF, excitation 480 nm (FIG. 14), Zinhbo-5 vs Zinhbo-1, 9 vs crystal 10",quite stronger NIR emission
same,Stokes shift of the new emission peak,[4]; peak at ~763 nm,~285 nm
C=C[C@H]1C[N@@]2CC[C@H]1C[C@H]2[C@H](O)c1ccnc2ccc(OC)cc12 [quinine sulfate],fluorescence quantum yield of standard,[5],0.53
